{"source": "paper PMC4156869", "about": "(Journal of the American Chemical Society, 2014)", "target": "T1, GalK2 (N-acetyl-galactosamine kinase) (Homo sapiens, UniProt Q01415)", "T1 sequence (Q01415 1-458)": "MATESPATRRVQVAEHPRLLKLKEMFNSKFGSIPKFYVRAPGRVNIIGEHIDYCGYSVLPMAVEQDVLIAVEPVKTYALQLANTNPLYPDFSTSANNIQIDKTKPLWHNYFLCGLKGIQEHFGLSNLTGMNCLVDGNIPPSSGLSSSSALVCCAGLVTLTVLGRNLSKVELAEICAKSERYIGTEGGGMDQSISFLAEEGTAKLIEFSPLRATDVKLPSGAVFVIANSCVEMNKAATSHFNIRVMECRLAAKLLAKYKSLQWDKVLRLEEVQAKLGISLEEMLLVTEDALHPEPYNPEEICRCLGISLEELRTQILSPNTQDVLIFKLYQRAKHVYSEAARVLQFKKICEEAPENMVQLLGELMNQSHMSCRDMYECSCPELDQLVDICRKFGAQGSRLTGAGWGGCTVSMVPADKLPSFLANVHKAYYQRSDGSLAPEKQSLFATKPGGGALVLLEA", "experiment": "[…]gamma-ATP phosphorylation, Dowex column, scintillation counting", "format": "biochemical", "conditions": "40 mM sugar, 5 mM ATP, 10 mM MgCl2, 50 mM Tris HCl pH 8.0, 37 °C"}
{"smiles": "CC(=O)N[C@H]1C(O)O[C@H](CO)[C@H](O)[C@@H]1O", "note": "(some centres unmarked) [GalNAc]", "values": [{"measurement": "[32P]gamma-ATP phosphorylation, Dowex column, scintillation counting", "value": "GalK2 readily phosphorylated both GalNAc and GlcNAc"}]}
{"smiles": "CC(=O)N[C@H]1C(O)O[C@H](CO)[C@@H](O)[C@@H]1O", "note": "(some centres unmarked) [GlcNAc]", "values": [{"measurement": "[32P]gamma-ATP phosphorylation, Dowex column, scintillation counting", "value": "GalK2 readily phosphorylated both GalNAc and GlcNAc"}]}
